This passage reports IC50 results from PubChem BioAssay AID540269 (Sanford-Burnham Center for Chemical Genomics, 2011).

Active and inactive are the calls of the source. How the calls were made is not given here. A value given as a limit tells only on which side of the number the result lay.

This assay concerns the target glucose-6-phosphate dehydrogenase-6-phosphogluconolactonase (Plasmodium falciparum 3D7). The experiment in a line: inhibition of P. falciparum G6PD activity – biochemical, kinetic NADPH detection, orthogonal assay, dose response (AID 540269). The following applies: purified PfG6PD-6PGL.
Broadly, the IC50 is the concentration that inhibits the measured activity by half. On to `COc1ccc(C(=O)c2c(C(F)(F)F)oc3c2C(=O)c2ccccc2C3=O)cc1`, for which the IC50 is > 80 µM (inactive).
Turning to `Cc1ccccc1-n1sc2cc(F)ccc2c1=O`, the IC50 is 10.2 µM.
Next, `Cc1ccc(-c2nn(C)c(=O)c3ccccc23)cc1CNC(=O)/C=C/c1ccccc1`: 68.6 µM.
Consider `CN(C)c1ncc(C2=C(Cl)C(=O)C(N3CCCC3)=C(Cl)C2=O)s1`, for which the IC50 was 35.6 µM.
For `CCn1c(N)c(C(=O)NC)sc1=S` the value was 26.3 µM.
For `CC(C)Nc1ccc(Nc2ccccc2)cc1` the value was > 80 µM (inactive).
Regarding `O=c1c2cc([N+](=O)[O-])ccc2sn1-c1ccccc1`, the IC50 is 15.9 µM.
For `O=C(O)CSc1cc(NS(=O)(=O)c2cccc([N+](=O)[O-])c2)c2ccccc2c1O`, the IC50 is > 80 µM (inactive).
In the case of `Cc1cccc(C(=O)Nc2sc3c(c2C(=O)O)CCCC3)c1`, the IC50 is 32.9 µM.
For `O=C(CCSCCC(=O)NN=Cc1ccccc1)NN=Cc1ccccc1`, the IC50 is > 80 µM (inactive).
Take `O=C(CNC(=O)c1ccco1)OCC(=O)c1ccc([N+](=O)[O-])cc1`: the IC50 is 50.9 µM.
Consider `COc1ccc(OCc2nnc3n2N=C(c2ccccc2)C(CC(=O)O)S3)cc1` (stereo not drawn), for which the IC50 is > 80 µM (inactive).
For `Cc1ccc(S(=O)(=O)Nc2nc(C)c(C(=O)N/N=C/c3ccccc3)s2)cc1` the value was 31 µM; for `COCc1cc(=O)n2[nH]c(C(C)(C)C)cc2n1`, 43.2 µM; for `Cc1ccc(S(=O)(=O)Oc2cccc(/C=N/Nc3ccc(C(=O)O)cc3)c2)cc1`, 41.4 µM.
For the molecule `COC(=O)[C@H](CCSC)NC(=O)c1cc2c(cn1)[nH]c1ccccc12`, the IC50 is 20.2 µM.
As for `Cc1cc(=O)[nH]c(N/N=C/c2c(C)nn(-c3ccccc3)c2Cl)n1`, the IC50 is 17.1 µM.
For `CN=c1scc(C)n1/N=C/c1ccc(O)c(O)c1O` the value was 24.8 µM.
Next, `CCN(CC)c1ccc(NC(=O)c2ccccc2Br)cc1S(=O)(=O)Nc1ccccc1OC`: 59.2 µM; `CN(C)c1nc(=NCc2cccs2)ss1`: > 80 µM (inactive).
Consider `CC1CCc2c(nc3sc4c(c3c2N)CCCC4)C1` (stereo not drawn), for which the IC50 is > 80 µM (inactive).
Next, `Cc1cc(N=NC(=O)c2ccccc2O)c2ccccc2c1O`: > 80 µM (inactive); `COc1cc(N)c2ncccc2c1OC`: > 80 µM (inactive); `Cc1ccc(N2CC(C(=O)OCC(=O)c3ccc([N+](=O)[O-])cc3)CC2=O)cc1` (stereo not drawn): > 80 µM (inactive).
Take `COc1cc(NC(C)CCc2ccccc2)cc(OC)c1OC` (stereo not drawn): the IC50 was > 80 µM (inactive).
For `Cc1cc(C)c[n+](C2=C([O-])c3ccccc3C(=O)/C2=N\S(=O)(=O)c2cccs2)c1` the value was > 80 µM (inactive).
For `CCN(CC)c1ccc(C(=C2C=CC(=[N+](CC)CC)C=C2)c2ccccc2)cc1` the value was > 80 µM (inactive); for `CN1C(=O)CSc2ccc(NC(=O)N3CCc4ccccc43)cc21`, > 80 µM (inactive).
With `CN(C)c1ccc2nc3ccc(=O)cc-3sc2c1`, the IC50 is > 80 µM (inactive).
On to `Cc1ccc(NC(=O)Cn2sc3nc(C)cc(C)c3c2=O)c(Cl)c1`, for which the IC50 was > 80 µM (inactive).
For `CCOc1ccccc1CNc1ccc(O)cc1`, the IC50 was 46.7 µM.
In the case of `O=c1[nH]c(NCCO)c(N=Cc2ccccc2)c(=O)[nH]1`, the IC50 was > 80 µM (inactive).
For `COC(=O)CCC(=O)OC1(C)C(=O)C2=CN(C3CC3)C(c3ccc(OC)cc3)=CC2=C(Br)C1=O` (stereo not drawn) the value was 45.8 µM; for `COCCn1nnnc1C(c1cc2cc(OC)c(OC)cc2[nH]c1=O)N1CCN(c2ccc(O)cc2)CC1` (stereo not drawn), 30.3 µM; for `CC(C)c1nnc(NC(=O)c2sc3ccccc3c2Cl)s1`, 35.5 µM.
`Cc1cc(O)c(C(C)C)cc1N=Cc1ccccc1[N+](=O)[O-]`: the IC50 was > 80 µM (inactive).
Take `CN(C)c1cccc2c1c(NC(=O)c1ccc(F)cc1)nn2C`: the IC50 was > 80 µM (inactive).
Take `[O-]/[N+](=C\c1ccncc1)c1ccccc1`: the IC50 is > 80 µM (inactive).
Consider `COc1ccccc1NS(=O)(=O)c1cc(NC(=O)c2ccc(Cl)nc2)ccc1N1CCCC1`, for which the IC50 was 32.1 µM.
Next, `Cc1ccc2nc(-c3ccc(NC(=S)NC4CC(C)(C)NC(C)(C)C4)cc3)sc2c1`: > 80 µM (inactive).
Next, `COc1cc(CN2CCN(CCCc3ccccc3)C(CCO)C2)cc(OC)c1O` (stereo not drawn): > 80 µM (inactive); `COc1cc(C(=O)O/N=C2\C=CC(=O)C=C2C)cc(OC)c1OC`: > 80 µM (inactive).
In the case of `Cc1ccc2nc(SCC(=O)NC3CCCc4ccccc43)[nH]c2c1` (stereo not drawn), the IC50 was > 80 µM (inactive).
On to `O=c1[nH]nc(CNc2ccc(O)cc2)c2ccccc12`, for which the IC50 was > 80 µM (inactive).
For `C=CCSc1nc2sc3c(c2c(=O)n1CC)CCc1ccccc1-3`, the IC50 is > 80 µM (inactive).
In the case of `COc1cc(NCc2ccccc2)c2ncn(Cc3ccccc3)c2c1`, the IC50 is > 80 µM (inactive).
For `CN1CCN(C(=S)c2ccc(Br)cc2)CC1` the value was > 80 µM (inactive).
Next, `CC1(OC(=O)C2CCCC2)C(=O)C=C2C=C(c3ccsc3)N(CCc3c[nH]c4ccccc34)C=C2C1=O` (stereo not drawn): > 80 µM (inactive).
Next, `CCN1CCN(C(=S)c2ccc(Cl)c(Cl)c2)CC1`: > 80 µM (inactive); `CCOC(=O)c1cnc2ccc(C)cc2c1Sc1ccccc1C(=O)OC`: > 80 µM (inactive); `CCOc1ccc(Cl)cc1/C=N/NC(N)=O`: 48.7 µM.
As to `CCN1CCN(C(=S)c2ccc(O)cc2)CC1`, the IC50 was > 80 µM (inactive).
Consider `C/C(Cn1nnc([N+](=O)[O-])n1)=N\NC(=O)c1ccc(O)cc1`, for which the IC50 was > 80 µM (inactive).
For `O=C1CCN(c2ccccc2)N1` the value was > 80 µM (inactive).
Next, `O=C(CCC(=O)Nc1ccccc1Cl)N/N=C/c1ccccc1`: > 80 µM (inactive).
For `O=C1/C(=C\c2ccc([N+](=O)[O-])cc2)CS(=O)(=O)C/C1=C/c1ccc([N+](=O)[O-])cc1` the value was > 80 µM (inactive).
On to `CCCN1CCc2cc(O)cc3c2[C@H]1Cc1ccc(O)c(O)c1-3`, for which the IC50 is > 80 µM (inactive).
As to `NC1CCc2cc(O)c(O)cc2C1` (stereo not drawn), the 50% inhibitory concentration (IC50) is 34.5 µM.
Turning to `O=C(Cn1sc2ccccc2c1=O)Nc1ccccc1`, the half-maximal inhibitory concentration (IC50) was 14.3 µM.
For `O=C(OCC(=O)c1ccc([N+](=O)[O-])cc1)/C(=C\c1ccc(Cl)cc1)NC(=O)c1ccccc1` the value was > 80 µM (inactive); for `O=C1NC(=S)NC(=O)C1=Cc1ccc(Br)s1`, > 80 µM (inactive); for `CC1(C)Nc2ccc(O)cc2-c2c1ssc2=S`, > 80 µM (inactive).
For the molecule `Cc1ccc(NC(=O)Cn2sc3ccccc3c2=O)cc1`, the half-maximal inhibitory concentration (IC50) is 14.4 µM.
`CCN1CCCC1CNC(=O)c1ccc2c(c1)NC(=O)/C(=C\c1ccccc1Cl)S2` (stereo not drawn): the IC50 is 8.01 µM.
For `O=C1C=CC(=O)N1c1ccc2c(c1)C(NC(=O)C(F)(F)F)c1ccccc1-2` (stereo not drawn) the value was > 80 µM (inactive).
For `Cc1cc(C)nc(SSc2nc(C)cc(C)n2)n1` the value was 68 µM.
Next, `CCn1c2ccccc2c2nc3cc(S(=O)(=O)N4CCOCC4)ccc3nc21`: > 80 µM (inactive); `CCN1CCCC1CNC(=O)c1ccc2c(c1)NC(=O)/C(=C\c1ccccc1F)S2` (stereo not drawn): 8.64 µM.
